Data: the supplement of paper PMC10307832

What was measured:
Test in all cases: relative viability (nuclei count vs DMSO), 5 days (fraction); higher = more cells survive
XMD13-2 = compound: C1CC1C(=O)NC2=NNC3=C2C=CC(=C3)C4=CC(=CC=C4)C(=O)NC5CC5 [XMD13-2]
Outline: (§1)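 For viability, nuclei in each treated well were divided by nuclei in vehicle wells and the median across plates was taken. Lung cancer cell lines in 1536-well plates were pinned with five library-drug doses (not always all listed) spaced by √10, cultured 5 days without medium change, and imaged at 4× after Hoechst staining, with plates passing only at control CV below 25% and at least one doubling.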

ALW-II-49-7 = compound: Cc1ccc(C(=O)Nc2cccc(C(F)(F)F)c2)cc1Nc1cncc(C(N)=O)c1 [ALW-II-49-7]
Outline: as §1

Dasatinib = compound: Cc1nc(Nc2ncc(C(=O)Nc3c(C)cccc3Cl)s2)cc(N2CCN(CCO)CC2)n1 [Dasatinib]
Outline: as §1

Row | Cell Line | relative viability (XMD13-2; 0.05 µM) | relative viability (XMD13-2; 0.1581 µM) | relative viability (XMD13-2; 0.5 µM) | relative viability (XMD13-2; 1.581 µM) | relative viability (XMD13-2; 5 µM) | relative viability (ALW-II-49-7; 0.08 µM) | relative viability (ALW-II-49-7; 0.253 µM) | relative viability (ALW-II-49-7; 0.8 µM) | relative viability (ALW-II-49-7; 2.53 µM) | relative viability (ALW-II-49-7; 8 µM) | relative viability (Dasatinib; 0.005 µM) | relative viability (Dasatinib; 0.01581 µM) | relative viability (Dasatinib; 0.05 µM) | relative viability (Dasatinib; 0.075 µM, anchor plate) | relative viability (Dasatinib; 0.1581 µM) | relative viability (Dasatinib; 0.5 µM)
1 | COR-L23 | 1.21 | 0.993 | 1.11 | 0.969 | 0.986 | 1.05 | 0.969 | 0.904 | 0.892 | 1.02 | 1.01 | 0.852 | 0.923 | 0.477 | 0.614 | 0.519
2 | SW 900 | 0.96 | 0.765 | 0.924 | 0.741 | 1.03 | 0.826 | 0.975 | 0.736 | 1.03 | 0.622 | 0.67 | 0.733 | 0.647 | 0.701 | 0.405 | 0.254
3 | NCI-H2085 | 1.06 | 0.981 | 1.04 | 0.871 | 1.06 | 1.01 | 1.05 | 0.985 | 1.03 | 0.995 | 0.981 | 0.904 | 0.804 | 0.255 | 0.356 | 0.218
4 | NCI-H2087 | 1.3 | 1.19 | 1.17 | 1.01 | 0.962 | 1.07 | 1.01 | 1.06 | 1.02 | 0.915 | 1.02 | 0.941 | 1.23 | 0.856 | 0.937 | 0.453
5 | HCC-366 | 1.08 | 0.918 | 0.991 | 0.979 | 1.03 | 1.03 | 1.05 | 1.09 | 1.04 | 0.855 | 0.805 | 0.748 | 0.608 | 0.682 | 0.728 | 0.52
6 | NCI-H2126 | 1.02 | 0.949 | 1.02 | 1.03 | 1.03 | 0.918 | 1.03 | 1.02 | 0.926 | 0.992 | 0.98 | 0.864 | 0.945 | 0.643 | 0.814 | 0.403
7 | SK-LU-1 | 1.07 | 1.03 | 1.19 | 1.05 | 0.924 | 1.04 | 1.11 | 1.07 | 0.769 | 0.746 | 0.823 | 0.542 | 0.42 | 0.174 | 0.312 | 0.25
8 | HCC-78 | 1.06 | 0.934 | 0.981 | 0.908 | 0.962 | 0.972 | 0.938 | 0.842 | 0.934 | 0.933 | 0.551 | 0.764 | 0.721 | 0.408 | 0.658 | 0.314
9 | LCLC-97TM1 | 0.974 | 0.917 | 0.95 | 0.7 | 0.903 | 0.97 | 0.905 | 1.09 | 0.755 | 0.865 | 1.17 | 0.97 | 1.05 | 0.837 | 1 | 0.561
10 | NCI-H1563 | 1.07 | 1.03 | 1.09 | 0.966 | 1.06 | 0.962 | 0.993 | 0.957 | 0.941 | 0.887 | 0.901 | 0.703 | 0.735 | 0.465 | 0.619 | 0.584
11 | NCI-H838 | 1.11 | 0.962 | 1.01 | 0.998 | 1.07 | 0.945 | 0.901 | 0.903 | 0.982 | 0.918 | 0.87 | 0.676 | 0.532 | 0.307 | 0.38 | 0.289
12 | NCI-H520 | 1.09 | 1.09 | 1.08 | 0.851 | 0.643 | 1.04 | 0.987 | 0.987 | 0.94 | 0.964 | 0.785 | 0.592 | 0.518 | 0.21 | 0.257 | 0.243
13 | NCI-H2347 | 1.05 | 1.02 | 1.06 | 1.08 | 0.935 | 1.05 | 0.968 | 1.04 | 0.973 | 0.949 | 0.913 | 0.838 | 0.659 | 0.314 | 0.452 | 0.333
14 | NCI-H441 | 1.19 | 1.08 | 0.968 | 0.96 | 0.771 | 1.2 | 0.868 | 0.913 | 0.902 | 0.762 | 1.03 | 0.997 | 1.11 | 0.675 | 0.636 | 0.338
15 | NCI-H2342 | 1.1 | 0.97 | 1.03 | 0.804 | 0.972 | 0.866 | 1.04 | 0.98 | 0.925 | 0.951 | 0.967 | 0.632 | 0.834 | 0.311 | 0.535 | 0.309
16 | NCI-H1944 | 1.11 | 0.958 | 1.06 | 1.18 | 0.977 | 0.997 | 0.91 | 0.949 | 0.934 | 0.893 | 0.918 | 0.902 | 0.644 | 0.228 | 0.286 | 0.208
17 | NCI-H2405 | 1.09 | 0.986 | 1.05 | 0.883 | 1.08 | 1.01 | 1.06 | 0.961 | 0.963 | 0.802 | 0.842 | 0.726 | 0.533 | 0.205 | 0.305 | 0.222
18 | HCC-15 | 1.11 | 0.931 | 1.01 | 0.98 | 0.904 | 1.04 | 0.975 | 0.964 | 1.08 | 0.919 | 1.03 | 0.991 | 0.928 | 0.651 | 0.854 | 0.726
